Reference: US20040105849A1, “Treatment for SMA disease” (priority 2002, published 2004)

How the values were obtained:
[1] = tested on: Infantile Seborrhoeic Dermatitis (cradle cap); experiment: Treatment of Infantile Seborrhoeic Dermatitis (cradle cap) in Patient A; assay type: in vivo, human; conditions: about 4,000 mcg at intervals of three days per week
Text: Early Symptoms and Patient Diagnosis. The patient (“Patient A”), a person. They were normal at birth with no signs of muscular weakness. Within three months of their birth, they developed a skin condition. […] Infantile Seborrhoeic Dermatitis, also known as cradle cap, is a condition that occurs in infants and is caused by the drying of excess oils excreted from the infant's body. It is characterized by a yellowish-whitish crust on the infant's head. Following medical consultation, various topical creams and ointments were employed without success. The B vitamin biotin was then given at a dosage of about 4,000 mcg at intervals of three days per week. Current research attributes cradle cap to a deficiency of this vitamin. […] Gut bacteria located in the large intestine are responsible for the production this B vitamin and a deficiency of this nutrient under normal conditions is rare.

[2] = tested on: Patient A, Spinal Muscular Atrophy (SMA) Type I; experiment: Tolerability / adverse effects of the supplements in Patient A; assay type: in vivo, human
Text: It is understood that the amounts of the various ingredients of the method of the invention can be, as may be necessary, conveniently be adjusted up or down for body weigh and other variants of the disease. The mode of delivery may vary. […] Ingredients could also be injected into the gastric tube in solid, gel or semi-solid form. Other children may swallow ingredients in solid or liquid form (with pharmaceutically acceptable carriers, e.g., water).

## O=C(O)CCCC[C@@H]1SC[C@@H]2NC(=O)N[C@@H]21 [biotin]
[1]
  course of cradle cap: resolved itself almost immediately

## O=c1c(O)c(-c2ccc(O)c(O)c2)oc2cc(O)cc(O)c12 [quercetin]
[2]; above 300 mg capsule, ½ capsule three days per week
  adverse effect of too much quercetin: depress Patient A's respiration

## C[C@@H]1O[C@@H](OC[C@H]2O[C@@H](Oc3c(-c4ccc(O)c(O)c4)oc4cc(O)cc(O)c4c3=O)[C@H](O)[C@@H](O)[C@@H]2O)[C@H](O)[C@H](O)[C@H]1O [Rutin]
[2]; dosages higher than approximately 3 mg every three days
  adverse effects at higher dosages: nausea, decrease gastrointestinal motility and drowsiness
[2]; rutin added to pectin
  adverse effect of rutin along with pectin: caused their lips to blister and peel
